Several values for one entry are separate records, joined by “and”; a condition that tells them apart may be missing. Identical values can stand only once. Entries after “also recorded” stand apart in the source; their conditions may differ. Like-named read-outs stand apart in the source and are kept apart here.
Assays:
[1] = system: acetic acid-induced writhing; experiment: acetic acid-induced writhing method (analgesic activity); type: in vivo, Swiss albino mice; settings: for inhibition in vivo at 10 mg/kg: Mus musculus, read-out: % Analgesic Activity; for Potency (analgesic): relative to indomethacin = 1.00; for Mean with ± SEM: writhes counted for 15 min; for analgesic activity (in words): compared with standard indomethacin
Procedure: All the tested compounds and standard drugs are evaluated at 10 mg/kg oral dose.
The analgesic activity of the tested compounds was carried out by acetic acid-induced writhing method as given in the literature using Swiss albino mice of either sex (25–35 g). The writh were induced in the albino mice using an intraperitoneal injection of 1% acetic acid solution. The standard drug indomethacin and test compounds were evaluated at a concentration of 10 mg/kg of the body weight. The animals were divided into groups and each group consisted of six animals. One group was kept as control, one as standard, and other as test groups. To the control group, 0.1% CMC solution was administered p.o; to the standard group, the standard drug was administered orally, and to the test group, test compounds were administered orally. After 60 min of the 0.1% CMC solution/standard drug/tested compound administration, 0.1 ml of 1% (v/v) acetic acid solution in distilled water was injected intraperitoneally in all the mice in each group including the control group. The writhing (a contraction of the abdomen, turning of trunk, and extension of hind limbs) was counted after 5 min of acetic acid administration and were counted for a period of 15 min. The percentage of analgesic activity was calculated using the following formula.
(Mean wriths of control—mean wriths of std./test) / mean wriths of control) × 100

gastric tissue = experiment: lipid peroxidation (MDA content of gastric tissue); type: in vivo; settings: for MDA content (lipid peroxidation): as repeated in Table 4, the values are: MDA content (lipid peroxidation); for Nanomoles of MDA Content ± SEM/ 100 mg Tissue: gastric tissue
Procedure: Gastrointestinal (GI) ulceration, bleeding, and renal problems are common complications of NSAID’S consumption, which is directly related to lipid peroxidation. […] It was measured as the nmol of MDA/100 mg of gastric tissue. We have found the Lipid peroxidation value was maximum 6.71 ± 0.18 for indomethacin, whereas 3.89 ± 0.17, 4.08 ± 0.22, 4.26 ± 0.12, and 4.81 ± 0.13 for compounds 4i, 4c, 4f, and 4n, respectively.
The method adopted for lipid peroxidation is the same as Ohkawaet al. and the recent work of our researchers.

gastric mucosal damage = experiment: acute ulcerogenic activity (severity index of gastric mucosal damage); type: in vivo, Wistar rats; settings: for Severity Index: test compounds 30 mg/kg oral, indomethacin 10 mg/kg or 20 mg/kg, 17 h after dose, mean ± SEM
Procedure: Four compounds, namely, 4c (Ar = 4-chlorophenyl), 4f (Ar = 2-chlorophenyl), 4i (Ar = 4-fluoro-3-chlorophenyl), and 4n (Ar = 2-methylphenyl) were selected for their ulcerogenic activity. This selection was based on their anti-inflammatory and analgesic activity. Compounds were evaluated at an oral dose of 30 mg/kg relative to 10 mg/kg indomethacin.
Acute ulcerogenic activity evaluation of the synthesized compounds was carried out according to the method described using Wistar rats of either sex (180–220 g). The animals were distributed into control, group, and test group. Each group consisted of six rats. All the rats fasted for 24 h with free access to water. To the control group, 1% CMC solution was administered p.o; to the standard group, indomethacin at a concentration of 20 mg/kg was administered orally; and to the test groups, tested compounds were administered orally at a concentration of 30 mg/kg. After the dose administration animals were kept for 17 h. After this, the animals were sacrificed for the appraisal of ulcerogenic assessment. The stomach was taken out from the animal body and washed with flushing water, then with a cotton swab wetted with saline (0.9%) and pinned on wax-coated try. The glandular portion of the stomach was cleaned again with saline to closely identify the presence of a type of ulcers or hemorrhage mark using a magnifying glass. The mucosal injury of the stomach was evaluated as per the following system: 0.5 = redness; 1 = spot ulcer; 1.5 = hemorrhage streak; 2 = ulcers < 3; 3 = ulcers > 3 < 5. The value obtained as a result of the mean score of the individual treated group—mean score of control is referred to as the severity index of the gastric mucosal damage.

Rat Paw Edema = experiment: carrageenan-induced hind paw edema method (anti-inflammatory activity); type: in vivo, Wistar albino rats; settings: for inhibition in vivo at 10 mg/kg: Rattus norvegicus, po; for inhibition in vivo at 10 mg/kg / % Age Inhibition of Rat Paw Edema, 4 H / anti-inflammatory activity (in words): oral dose 10 mg/kg; for inhibition in vivo at 10 mg/kg / % Age Inhibition of Rat Paw Edema, 4 H: mean ± SEM; for Potency (anti-inflammatory): relative to indomethacin = 1.00; for anti-inflammatory activity (in words): compared with standard indomethacin
Procedure: The anti-inflammatory activity of the synthesized compounds (4a–n) was evaluated by the carrageenan-induced paw edema method. An oral dose of 10 mg/kg was used for compounds and compared with the standard. Anti-inflammatory activity was accessed through percentage inhibition after 2 and 4 h (Table 1).
Compounds produced were assessed for their anti-inflammatory activity using the carrageenan-induced hind paw edema method. The anti-inflammatory activity was carried out using Wistar albino rats of either sex (150–220 g) using a Digital Plethysmometer (Model No. 7140, UGO BASILE). The edema was induced by using 1% carrageenan solution. Indomethacin was used as a standard drug. The anti-inflammatory activity of the standard drug and tested compounds was determined at a dose of 10 mg/kg body weight. The animals were divided into groups containing six animals each and the initial paw volume of each rat was noted by the NaCl displacement method. One group was kept as control, one as standard, and the rest of the groups of compounds were to be tested. To the control group, 1% CMC solution was administered p.o. To the standard group, the standard drug was administered orally. To the test group, tested compounds were administered orally. After 60 min of the 1% CMC solution/standard drug/test compound administration, 0.1 ml of 1% (w/v) carrageenan was injected in the plantar region of the hind limb (right) of all the rats in each group including the control group. The paw volume was again measured after the time interval of 2 and 4 h. Using the following formula, inflammation was calculated as percentage inhibition for the test and reference compounds
(Final foot volume of control—final foot volume of std./test) × 100 / final foot volume of control)

[2] = 2 h, 2 h, read-out: % Age Inhibition of Rat Paw Edema, 2 H
[3] = 4 h, 4 h, read-out: % Age Inhibition of Rat Paw Edema, 4 H

Structure (SMILES)	melting point	inhibition in vivo at 10 mg/kg ([1]; oral dose 10 mg/kg, mean ± SEM)	Potency (analgesic) ([1]; 10 mg/kg)	Mean with ± SEM ([1]; oral dose 10 mg/kg)	MDA content (lipid peroxidation) (gastric tissue)	Nanomoles of MDA Content ± SEM/ 100 mg Tissue (gastric tissue)	Severity Index (gastric mucosal damage)	inhibition in vivo at 10 mg/kg (Rat Paw Edema; [2])	inhibition in vivo at 10 mg/kg (Rat Paw Edema; [3])	Potency (anti-inflammatory) (Rat Paw Edema; 10 mg/kg)	analgesic activity (in words) ([1]; oral dose 10 mg/kg)	% Age Inhibition of Rat Paw Edema, 4 H (Rat Paw Edema; 4 h, 10 mg/kg)	anti-inflammatory activity (in words) (Rat Paw Edema; 10 mg/kg)	analgesic activity (in words) ([1]; oral dose 10 mg/kg, 10 mg/kg)	anti-inflammatory activity (in words) (Rat Paw Edema)	severity index as share of the severity shown by the standard (gastric mucosal damage; relative to indomethacin)	% Analgesic Activity ([1]; oral dose 10 mg/kg, mean ± SEM, 10 mg/kg)	Nanomoles of MDA Content ± SEM/ 100 mg Tissue (gastric tissue; listed as indomethacin)
O=C1C(=NNc2nc(-c3cc4ccccc4oc3=O)cs2)c2ccccc2N1CNc1ccc(Cl)cc1 [Compound 4c, 1-[(4-Chloro-phenylamino)-methyl]-3-{[4-(2-oxo-2H-chromen-3-yl)-thiazol-2-yl]-hydrazono}-1,3-dihydro-indol-2-one]	233 to 235 °C	59.9 ± 0.846%	0.81	13.00 ± 0.2582	4.08 ± 0.22 nmol MDA/100 mg tissue	4.08 ± 0.22 nmol of MDA/100 mg of gastric tissue and 4.26 ± 0.12 nmol of MDA/100 mg of gastric tissue	0.666 ± 0.105	59.29 ± 0.143%	30.17 ± 0.294%	0.36	–	–	–	–	–	–	–	–
O=C1C(=NNc2nc(-c3cc4ccccc4oc3=O)cs2)c2ccccc2N1CNc1ccccc1Cl [Compound 4f, 1-[(2-chloro-phenylamino)-methyl]-3-{[4-(2-oxo-2H-chromen-3-yl)-thiazol-2-yl]-hydrazono}-1,3-dihydro-indol-2-one]	239 to 241 °C	69.36 ± 0.585%	0.94	9.93 ± 0.386	4.26 ± 0.12 nmol MDA/100 mg tissue	4.26 ± 0.12 nmol of MDA/100 mg of gastric tissue and 4.08 ± 0.22 nmol of MDA/100 mg of gastric tissue	0.666 ± 0.105	48.38 ± 0.219%	72.4%	0.88	very good analgesic activity	72.42 ± 0.183 %	good anti-inflammatory activity; also recorded: significant anti-inflammatory activity	–	–	–	–	–
O=C1C(=NNc2nc(-c3cc4ccccc4oc3=O)cs2)c2ccccc2N1CNc1ccc(F)c(Cl)c1 [Compound 4i, 1-[(3-Chloro-4-fluoro-phenylamino)-methyl]-3-{[4-(2-oxo-2H-chromen-3-yl)-thiazol-2-yl]-hydrazono}-1,3-dihydro-indol-2-one]	246 to 248 °C	66.3 ± 1.01%	0.90	10.93 ± 0.3128	3.89 ± 0.17 nmol MDA/100 mg tissue	3.89 ± 0.17 nmol of MDA/100 mg of gastric tissue	0.500 ± 0.129	31.27 ± 0.188%	63.95 ± 0.218%	0.77	–	–	–	very good analgesic activity; also recorded: good analgesic activity	moderate anti-inflammatory activity	–	–	–
Cc1ccccc1NCN1C(=O)C(=NNc2nc(-c3cc4ccccc4oc3=O)cs2)c2ccccc21 [Compound 4n, 3-{[4-(2-Oxo-2H-chromen-3-yl)-thiazol-2-yl]-hydrazono}-1-(o-tolylamino-methyl)-1,3-dihydro-indol-2-one]	237 to 239 °C	69.14 ± 0.689%	0.93	10.00 ± 0.3651	4.81 ± 0.13 nmol MDA/100 mg tissue	4.81 ± 0.13 nmol of MDA/100 mg of gastric tissue	–	42.57 ± 0.213%	69.58 ± 0.133%	0.84	very good analgesic activity	–	–	–	–	20%	–	–
COc1ccc2c(c1)c(CC(=O)O)c(C)n2C(=O)c1ccc(Cl)cc1 [Indomethacin, reference compound]	–	73.6%	1.00	8.55 ± 0.394	–	6.71 ± 0.18 nmol of MDA/100 mg of gastric tissue	4.500 ± 0.316	66.34 ± 0.051%	82%	1.00	–	82.05 ± 0.08%	–	–	–	–	73.61 ± 0.315 %	6.71 ± 0.18 nmol of MDA/100 mg of gastric tissue

From article PMC7179205, “An Improved Synthesis of Key Intermediate to the Formation of Selected Indolin-2-Ones Derivatives Incorporating Ultrasound and Deep Eutectic Solvent (DES) Blend of Techniques, for Some Biological Activities and Molecular Docking Studies” (Molecules, 2020)
